Results taken from PMC10412636, “An analysis of interactions between three structurally diverse anthocyanidins, as well as their glucosides, and model biological membranes, albumin, and plasmid DNA” (Scientific Reports, 2023).

Key:
[1] = MC540 probe fluorescence intensity in MM liposomes; conditions: 37 °C, positive = decrease
Method: (§1) Two types of liposomes were used to study interactions with biological membranes: liposomes mimicking the composition of cancer cell membranes (mimic membrane liposome—MM) and liposomes formed from lipids extracted from human blood erythrocyte membranes (red blood cell membrane liposome—RBCM). […] Both lipids, dissolved in chloroform (MM liposome) and n-decane (RBCM liposome), were evaporated under a nitrogen atmosphere, and then dried in a desiccator for 90 min under a vacuum. The obtained dry lipid film was hydrated in phosphate buffer, pH 7.4, obtaining a concentration of 0.1 mg/ml, and then vortexed for one minute until a homogeneous, milky suspension was observed. The mixture was sonicated (Sonic, Milano, Italia) for 15 min keeping the sample in a bath of ice water, thus providing a cooling temperature of 0 °C. The suspension was then processed (extrusion) through polycarbonate filters with pore diameters of 100 and 200 nm using a Lipex extruder (Evonik). Liposomes, which had been prepared according to this procedure, was used in fluorimetric studies.
(§2) To investigate these properties three fluorescent probes were used: MC540, TMA-DPH, and DPH. MC540 localizes to the outer, hydrophilic part of the membrane, within the region of the glycerol skeleton[44]. Changes in the fluorescence intensity of this probe were formulated as the relative change in intensity to the control as a function of anthocyanins concentration. The TMA-DPH and DPH probes are supposed to locate nearer to the interface and in the hydrophobic region, respectively[45]. The measurement of changes in the anisotropy of the TMA-DPH and DPH probes allowed us to reflect the mobility of the fluorescent probes in the membrane, and therefore to determine the fluidity of the bilayer[46]. Fluorescence anisotropy was calculated using the formula[47]:1 A=I‖-GI⊥/I‖+2GI⊥ where I‖ and I⊥ are the intensity of fluorescence in parallel and perpendicular directions, to the plane of polarization of the excitation wave, respectively. G is an apparatus constant that depends on the emission wavelength.
(§3) Liposomes (the concentration of lipids in the sample was 0.1 mg/ml) were incubated for 30 min with the appropriate probe (dissolved in DMF, 1 µM concentration), and then the tested anthocyanins were added (final concentration of 1 to 30 µM). The control sample consisted of liposomes and a fluorescent probe. Fluorescence was measured on a fluorimeter (Cary Eclipse, Varian, San Diego, USA) at 37 °C. The excitation wavelengths λex and emission wavelengths λem respectively: MC540—λexc = 540 nm, λem = 590 nm; DPH—λexc = 360 nm, λem = 425 nm. nm; TMA-DPH—λexc = 340 nm, λem = 430 nm.

[2] = MC540 probe fluorescence intensity in RBCM liposomes; parameters: species or system human; conditions: 37 °C, positive = decrease
Method: as §1, §2, §3

[3] = TMA-DPH probe fluorescence anisotropy in MM liposomes; conditions: negative = increase in anisotropy
Method: as §1, §2, §3

[4] = TMA-DPH probe fluorescence anisotropy in RBCM liposomes; parameters: species or system human; conditions: negative = increase in anisotropy
Excerpt: Two types of liposomes were used to study interactions with biological membranes: liposomes mimicking the composition of cancer cell membranes (mimic membrane liposome—MM) and liposomes formed from lipids extracted from human blood erythrocyte membranes (red blood cell membrane liposome—RBCM). […] The RBCM liposome was according to the methodology described previously[42] with minor modifications[43]. Both lipids, dissolved in chloroform (MM liposome) and n-decane (RBCM liposome), were evaporated under a nitrogen atmosphere, and then dried in a desiccator for 90 min under a vacuum. The obtained dry lipid film was hydrated in phosphate buffer, pH 7.4, obtaining a concentration of 0.1 mg/ml, and then vortexed for one minute until a homogeneous, milky suspension was observed. The mixture was sonicated (Sonic, Milano, Italia) for 15 min keeping the sample in a bath of ice water, thus providing a cooling temperature of 0 °C. The suspension was then processed (extrusion) through polycarbonate filters with pore diameters of 100 and 200 nm using a Lipex extruder (Evonik). Liposomes, which had been prepared according to this procedure, was used in fluorimetric studies.
To investigate these properties three fluorescent probes were used: MC540, TMA-DPH, and DPH. MC540 localizes to the outer, hydrophilic part of the membrane, within the region of the glycerol skeleton[44]. […] The TMA-DPH and DPH probes are supposed to locate nearer to the interface and in the hydrophobic region, respectively[45]. The measurement of changes in the anisotropy of the TMA-DPH and DPH probes allowed us to reflect the mobility of the fluorescent probes in the membrane, and therefore to determine the fluidity of the bilayer[46]. Fluorescence anisotropy was calculated using the formula[47]:1 A=I‖-GI⊥/I‖+2GI⊥ where I‖ and I⊥ are the intensity of fluorescence in parallel and perpendicular directions, to the plane of polarization of the excitation wave, respectively. G is an apparatus constant that depends on the emission wavelength.
as §3

[5] = DPH probe fluorescence anisotropy in MM liposomes; conditions: MM, negative = increase in anisotropy
Method: as §1, §2, §3

[6] = DPH probe fluorescence anisotropy in RBCM liposomes; parameters: species or system human; conditions: RBCM, negative = increase in anisotropy
Method: as §1, §2, §3

[7] = DPH fluorescence quenching, dissociation constant with MM liposome membrane; type: binding; conditions: 37 °C
Method: as §1
(§4) The phenomenon of quenching the fluorescence of the DPH probe by biologically active substances enabled us to evaluate the partition coefficient (Kd, dissociation constant) of anthocyanins with both MM and RBCM liposome membranes. For this purpose, changes in the fluorescence intensity of this probe were checked and the coefficient was calculated using the equation[48]:2 1/F0/F-1=Kd/[liposomes]×1/[anthocyanins]+1/liposomes where F0—fluorescence intensity in the absence of anthocyanins (control sample), F—fluorescence intensity in the presence of anthocyanins, [liposomes]—concentration of liposomes in mg/ml, [anthocyanins]—concentration of anthocyanins tested mg/ml.
as §3

[8] = DPH fluorescence quenching, dissociation constant with RBCM liposome membrane; type: binding, human; conditions: 37 °C
Method: as §1, §4, §3

[9] = biological target: human serum albumin (HSA) (Homo sapiens, UniProt P02768); test: Quenching of natural fluorescence of human serum albumin; type: binding; conditions: HSA […] 10^–5 M, 37 °C
Method: The phenomenon of quenching the natural fluorescence of human serum albumin (HSA) was used to investigate the potential interaction of anthocyanins with this protein. […] Anthocyanins with concentrations ranging from 1 to 30 µM were added to HSA dissolved in phosphate buffer (1.5 × 10^–5 M) and then incubated at 37 °C for 20 min. Emission spectra were performed on a fluorimeter Cary Eclipse (Varian, San Diego, USA) at 37 °C. HSA fluorescence was excited with a wavelength of λ = 280 nm, the emission was measured in the range from 286 to 460 nm, and the fluorescence intensity was read at 345 nm where the emission maximum of HSA was located.
The Stern–Volmer equation was used to thoroughly describe the quenching mechanism of natural fluorescence and to determine the bindings parameters of HSA: anthocyanin complexes:4 F0/F=1+Kqτ0Q=1+KSV[Q] where F0—fluorescence intensity in the absence of anthocyanins (control sample), F—fluorescence intensity in the presence of anthocyanins, KSV—Stern–Volmer quenching constant (KSV = Kq·τ0), [Q]—concentration of quencher (tested compound), Kq—bimolecular quenching constant, τ0—a lifetime of the fluorophore in the absence of quencher the fluorescence lifetime of a biopolymer is calculated as 5 × 10^–9 s[51].
The apparent binding constants (Kb) and the number of binding sites (n) can be calculated using the following equation:5 log(F0-F/F]=logKb+nlog[Q]
F0 and F are the fluorescence intensities before and after the addition of the quencher. From the linear plot of log (F0 − F)/F versus log [Q], the value of Kb was obtained from the intercept.

pHbApr-1-Neo plasmid DNA = test: TCSPC-FCS of PicoGreen-labelled plasmid DNA with anthocyanins; type: binding
Method: To evaluate the biological interaction with DNA molecules the anthocyanins were initially dissolved in ETOH (1 mM). […] Mixing of such solutions with the aqueous DNA solutions used in the studies never exceeded 1% concentration ETOH (v/v) in the final solution. The DNA plasmid was labelled by PicoGreen (CPicoGreen/CDNAbp = 0.02)[52]. The pHbApr-1-Neo plasmid (10 kbp and contour length 3.4 µm) was a generous gift from the laboratory of Prof. Maciej Ugorski (Department of Biochemistry and Molecular Biology, Wrocław University of Environmental and Life Sciences Wroclaw, Poland). PicoGreen-labelled DNA samples mixed with the appropriate amount of anthocyanins were left overnight and then measured. The increasing concentration of anthocyanins in the tested samples was expressed as the ratio of the molar concentration of anthocyanins per molar concentration of DNA base pairs in a given sample (comp/bp). The 100 µl samples were measured in Ibidi 8-well chambers. Each point on the graph is a single sample (average of 10 measurements). All measurements were performed at room temperature (25 °C). Time-correlated single-photon counting fluorescence correlation spectroscopy (TCSPC-FCS) was used to study the interaction of plasmid DNA at the single molecule level with all tested anthocyanins. […] Low power of 1uW (at the back aperture of the objective) was chosen to minimize photobleaching and saturation. In the detection plane, a pinhole (50um in diameter) was used and the signal was collected by a single photon avalanche diode (SPAD, Microphoton Devices, Bolzano, Italy). Photon arrival times were stored using fast electronics (Picoharp 300, PicoQuant) in time-tagged time-resolved recording mode. Two independent times were assigned to each detected photon: (1) a time after the beginning of the measurement and (2) a time after the previous laser pulse. The FCS data analysis was done using home-built routines (DevC++, Bloodshed Software and OriginPro70, OriginLab Corporation). The TCSPC data analysis was performed using SymPhoTime software (PicoQuant). Further details of the data evaluation are given elsewhere.

HSA = tested on: HSA; parameters: method as in earlier work; conditions: cited from earlier work
[10] = 30 µM, listed as delphinidin glucoside

Sequence of human serum albumin (HSA) (P02768 25-609): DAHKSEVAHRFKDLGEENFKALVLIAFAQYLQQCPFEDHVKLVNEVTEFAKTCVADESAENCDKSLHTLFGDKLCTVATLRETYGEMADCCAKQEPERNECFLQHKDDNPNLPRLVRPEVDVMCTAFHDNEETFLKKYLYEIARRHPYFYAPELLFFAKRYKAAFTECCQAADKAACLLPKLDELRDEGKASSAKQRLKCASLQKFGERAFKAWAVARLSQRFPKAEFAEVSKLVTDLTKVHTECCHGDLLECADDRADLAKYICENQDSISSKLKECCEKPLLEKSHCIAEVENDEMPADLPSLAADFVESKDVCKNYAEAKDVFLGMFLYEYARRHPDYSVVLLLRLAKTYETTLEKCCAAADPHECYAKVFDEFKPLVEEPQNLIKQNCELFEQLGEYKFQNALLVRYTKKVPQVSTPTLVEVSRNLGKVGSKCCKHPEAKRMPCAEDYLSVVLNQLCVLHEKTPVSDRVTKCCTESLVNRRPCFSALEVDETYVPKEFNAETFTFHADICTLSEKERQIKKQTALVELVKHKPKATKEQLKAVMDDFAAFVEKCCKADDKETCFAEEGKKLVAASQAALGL

OCC1OC(Oc2cc3c(O)cc(O)cc3[o+]c2-c2cc(O)c(O)c(O)c2)C(O)C(O)C1O (centres unmarked) [Dp 3-glc, Delphinidin 3-O-glucoside]
Changes in MC540 fluorescence intensity relative to the control ([1]; 1 µM): 3.27±0.12% | Changes in MC540 fluorescence intensity relative to the control ([1]; 5 µM): 5.73±0.30% | Changes in MC540 fluorescence intensity relative to the control ([1]; 10 µM): 10.51±0.55% | Changes in MC540 fluorescence intensity relative to the control ([1]; 20 µM): 20.30±0.93% | Changes in MC540 fluorescence intensity relative to the control ([1]; 30 µM): 30.30±0.19% | Changes in MC540 fluorescence intensity relative to the control [1, 10]: 30.3 ± 0.2% | Changes in MC540 fluorescence intensity relative to the control ([2]; 1 µM): 11.73±0.51% | Changes in MC540 fluorescence intensity relative to the control ([2]; 5 µM): 17.29±0.54% | Changes in MC540 fluorescence intensity relative to the control ([2]; 10 µM): 22.06±1.25% | Changes in MC540 fluorescence intensity relative to the control ([2]; 20 µM): 36.70±4.24% | Changes in MC540 fluorescence intensity relative to the control ([2]; 30 µM): 47.56±9.12% | Changes in MC540 fluorescence intensity relative to the control [2, 10]: 47.6 ± 9.1% | Changes in TMA-DPH anisotropy relative to the control ([3]; 1 µM): -4.62±0.05% | Changes in TMA-DPH anisotropy relative to the control ([3]; 5 µM): -1.60±0.04% | Changes in TMA-DPH anisotropy relative to the control ([3]; 10 µM): 0.26±0.005% | Changes in TMA-DPH anisotropy relative to the control ([3]; 20 µM): 1.99±0.06% | Changes in TMA-DPH anisotropy relative to the control ([3]; 30 µM): 0.41±0.01% | Changes in TMA-DPH anisotropy relative to the control ([4]; 1 µM): -2.73±0.14% | Changes in TMA-DPH anisotropy relative to the control ([4]; 5 µM): -0.01±0.00% | Changes in TMA-DPH anisotropy relative to the control ([4]; 10 µM): 2.57±0.07% | Changes in TMA-DPH anisotropy relative to the control ([4]; 20 µM): 2.52±0.16% | Changes in TMA-DPH anisotropy relative to the control ([4]; 30 µM): 1.15±0.03% | Changes in DPH anisotropy relative to the control ([5]; 1 µM): -10.78±0.24% | Changes in DPH anisotropy relative to the control ([5]; 5 µM): -12.62±0.18% | Changes in DPH anisotropy relative to the control ([5]; 10 µM): -10.40±0.13% | Changes in DPH anisotropy relative to the control ([5]; 20 µM): -7.80±0.10% | Changes in DPH anisotropy relative to the control ([5]; 30 µM): -6.27±0.05% | Changes in DPH anisotropy relative to the control ([6]; 1 µM): -6.55±0.37% | Changes in DPH anisotropy relative to the control ([6]; 5 µM): -6.14±0.25% | Changes in DPH anisotropy relative to the control ([6]; 10 µM): -6.03±0.39% | Changes in DPH anisotropy relative to the control ([6]; 20 µM): -6.20±0.38% | Changes in DPH anisotropy relative to the control ([6]; 30 µM): -6.30±0.39% | Kd [7]: 93.6 ± 19.5 µM | Kd [8]: 13.4 ± 3.05 µM | Stern Volmer constant KSV [9]: 20.09 ± 2.57 × 10^3 M^−1 | number of binding sites n [9]: 0.96 ± 0.03 | tD changes, times smaller than those caused by Pt3-glc (pHbApr-1-Neo plasmid DNA): more than 5 times | lifetime (LT) (pHbApr-1-Neo plasmid DNA; 0 < comp/bp < 2, decrease from 4.25 ns): about 2.25 ns | lifetime (LT), plateau (pHbApr-1-Neo plasmid DNA; 2 < comp/bp < 5): about 2.1 ns | decrease in the diffusion time (tD) (pHbApr-1-Neo plasmid DNA; tested range of comp/bp from 0 to 5): 2.5 fold | affinity for HSA compared to aglycone (HSA): tenfold lower
